IC50 data for 16 compounds are collected here from US9840478B2 (MERCK SHARP & DOHME CORP., priority 2013, dated 2017).

In this assay the test system is HIV-1 (H9IIIB strain). In words: Cell-based HIV infection assay using a reporter (Cell-Based), MT4-GFP cells. The following applies: 50% normal human serum, mean of at least two independent experiments, read-out: Cell-based IP. The method, boiled down: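 MT4-GFP cells (HIV LTR-driven GFP) infected 24 h with HIV-1 H9IIIB at low MOI, then washed and plated with compounds in RPMI + 50% normal human serum, 0.4% DMSO final. Green cells counted at 24 and 48 h; R0 = 48 h/24 h ratio, inhibition normalized to DMSO and triple-drug control; IC50 from 4-parameter fit.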

[1] abbreviates: Human immunodeficiency virus 1, MT4-GFP cells infected with HIV-1 H9IIIB.
[2] abbreviates: MT4-GFP cells infected with HIV-1 H9IIIB.

Like-named read-outs stand apart in the source and are kept apart here.

In the case of `COC(=O)N[C@H](C(=O)Nc1cccc(F)c1CC[C@H]1CNC[C@@H](C)N1S(=O)(=O)C1CC1)[C@@H](c1cccc(Cl)c1)C(C)C` [Example 217, (βR)-3-chloro-N-(2-{2-[(2S,6R)-1-(cyclopropylsulfonyl)-6-methylpiperazin-2-yl]ethyl}-3-fluorophenyl)-Nα-(methoxycarbonyl)-β-(1-methylethyl)-L-phenylalaninamide], under setting [1], the IC50 is 1800 nM.
With `COCC1CNC[C@H](CCc2c(F)cccc2NC(=O)[C@@H](N)[C@@H](c2ccc(Cl)cc2)C2CCOCC2)N1S(C)(=O)=O` (stereo partly drawn) [Example 218, (βR)-4-chloro-N-(3-fluoro-2-{2-[(2S)-6-(methoxymethyl)-1-(methylsulfonyl)piperazin-2-yl]ethyl}phenyl)-β-(tetrahydro-2H-pyran-4-yl)-L-phenylalaninamide], the IC50 under setting [2] is 310 nM.
With `C[C@H]1CNC[C@H](CCc2c(F)cccc2NC(=O)[C@@H](N)[C@H](c2cncc(F)c2)c2cccc(Cl)c2)N1S(=O)(=O)c1ccccc1` [Example 219, (βS)-3-chloro-N-(3-fluoro-2-{2-[(2S,6S)-6-methyl-1-(phenylsulfonyl)piperazin-2-yl]ethyl}phenyl)-β-(5-fluoropyridin-3-yl)-L-phenylalaninamide], the IC50 under setting [1] is 25 nM.
Still for that read-out and setting: under `C[C@H]1CNC[C@H](CCc2c(F)cccc2NC(=O)[C@@H](N)[C@@H](Cc2ccc(F)cc2)c2ccc(Cl)cc2)N1S(=O)(=O)c1ccc(OC(F)(F)F)cc1` [Example 220, (βS)-4-chloro-β-(4-fluorobenzyl)-N-(3-fluoro-2-{2-[(2S,6S)-6-methyl-1-{[4-(trifluoromethoxy)phenyl]sulfonyl}piperazin-2-yl]ethyl}phenyl)-L-phenylalaninamide] stands 780 nM; under `COC(=O)N[C@H](C(=O)Nc1cccc(F)c1CC[C@H]1CNC[C@H](C)N1S(=O)(=O)c1ccc(OC(F)(F)F)cc1)[C@@H](Cc1ccc(F)cc1)c1ccc(Cl)cc1` [Example 221, (βS)-4-chloro-β-(4-fluorobenzyl)-N-(3-fluoro-2-{2-[(2S,6S)-6-methyl-1-{[4-(trifluoromethoxy)phenyl]sulfonyl}piperazin-2-yl]ethyl}phenyl)-Nα-(methoxycarbonyl)-L-phenylalaninamide], 230 nM; under `COC(=O)N[C@H](C(=O)Nc1cccc(F)c1CC[C@H]1CNCC(COC(C)C)N1S(C)(=O)=O)[C@H](c1cccc(F)c1)c1cccc(Cl)c1` (stereo partly drawn) [Example 222, (βR)-β-(3-chlorophenyl)-3-fluoro-N-(3-fluoro-2-{2-[(2S)-6-[(1-methylethoxy)methyl]-1-(methylsulfonyl)piperazin-2-yl]ethyl}phenyl)-Nα-(methoxycarbonyl)-L-phenylalaninamide], 76 nM.
Still for that read-out and setting: under `C[C@H]1CNC[C@H](CCc2c(F)cccc2NC(=O)[C@@H](N)[C@@H](c2ccc(F)cc2)c2cc(F)cc(F)c2)N1S(=O)(=O)C1CC1` [Example 223, (βS)-N-(2-{2-[(2S,6S)-1-(cyclopropylsulfonyl)-6-methylpiperazin-2-yl]ethyl}-3-fluorophenyl)-β-(3,5-difluorophenyl)-4-fluoro-L-phenylalaninamide] stands 36 nM; under `CC[C@H]1CNC[C@H](CCc2c(F)cccc2NC(=O)[C@@H](N)[C@@H](c2ccc(Cl)cc2)C2CCOCC2)N1S(C)(=O)=O` [Example 224, (βR)-4-chloro-N-(2-{2-[(2S,6S)-6-ethyl-1-(methylsulfonyl)piperazin-2-yl]ethyl}-3-fluorophenyl)-β-(tetrahydro-2H-pyran-4-yl)-L-phenylalaninamide], 90 nM.
With `CC[C@H]1CNC[C@H](CCc2c(F)cccc2NC(=O)[C@@H](NC(=O)OC)[C@@H](c2ccc(Cl)cc2)C2CCOCC2)N1S(C)(=O)=O` [Example 225, (βR)-4-chloro-N-(2-{2-[(2S,6S)-6-ethyl-1-(methylsulfonyl)piperazin-2-yl]ethyl}-3-fluorophenyl)-Nα-(methoxycarbonyl)-β-(tetrahydro-2H-pyran-4-yl)-L-phenylalaninamide], the IC50 under setting [1] was 23 nM.
As to `CS(=O)(=O)N1C(COCc2ccccc2)CNC[C@@H]1CCc1c(F)cccc1NC(=O)[C@@H](N)[C@@H](Cc1ccc(F)cc1)c1ccc(Cl)cc1` (stereo partly drawn) [Example 226, (βS)-N-(2-{2-[(2S)-6-[(benzyloxy)methyl]-1-(methylsulfonyl)piperazin-2-yl]ethyl}-3-fluorophenyl)-4-chloro-β-(4-fluorobenzyl)-L-phenylalaninamide], the IC50 under setting [1] amounted to 1100 nM.
In the case of `C[C@@H]1CNC[C@H](CCc2c(F)cncc2NC(=O)[C@@H](N)[C@@H](c2ccc(F)cc2)c2cc(F)cc(F)c2)N1S(=O)(=O)c1ccc(OC(F)(F)F)cc1` [Example 227, (βS)-β-(3,5-difluorophenyl)-4-fluoro-N-(5-fluoro-4-{2-[(2S,6R)-6-methyl-1-{[4-(trifluoromethoxy)phenyl]sulfonyl}piperazin-2-yl]ethyl}pyridin-3-yl)-L-phenylalaninamide], the IC50 under setting [1] is 23 nM.
On to `CC(C)OCC1CNC[C@H](CCc2c(F)cccc2NC(=O)[C@@H](N)[C@@H](c2ccc(F)cc2)c2cc(F)cc(F)c2)N1S(=O)(=O)C1CC1` (stereo partly drawn) [Example 228, (βS)-N-[2-(2-{(2S)-1-(cyclopropylsulfonyl)-6-[(1-methylethoxy)methyl]piperazin-2-yl}ethyl)-3-fluorophenyl]-β-(3,5-difluorophenyl)-4-fluoro-L-phenylalaninamide], for which, under setting [2], the IC50 is 15 nM.
In the case of `C[C@H]1CNC[C@H](CCc2c(F)cccc2NC(=O)[C@@H](N)[C@@H](c2ccc(F)cc2)c2cc(F)cc(F)c2)N1S(=O)(=O)c1ccccc1Cl` [Example 229, (βS)-N-[2-(2-{(2S,6S)-1-[(2-chlorophenyl)sulfonyl]-6-methylpiperazin-2-yl}ethyl)-3-fluorophenyl]-β-(3,5-difluorophenyl)-4-fluoro-L-phenylalaninamide], the IC50 under setting [1] stood at 350 nM.
Same read-out and setting: with `C[C@@H]1CNC[C@H](CCc2c(F)cccc2NC(=O)[C@@H](N)[C@@H](c2ccc(F)cc2)c2cc(F)cc(F)c2)N1S(=O)(=O)c1ccccc1Cl` [Example 230, (βS)-N-[2-(2-{(2S,6R)-1-[(2-chlorophenyl)sulfonyl]-6-methylpiperazin-2-yl}ethyl)-3-fluorophenyl]-β-(3,5-difluorophenyl)-4-fluoro-L-phenylalaninamide] the figure was 290 nM.
Same read-out and setting: with `COC(=O)N[C@H](C(=O)Nc1cccc(F)c1CC[C@H]1CNC[C@H](C)N1S(=O)(=O)c1ccccc1Cl)[C@@H](c1ccc(F)cc1)c1cc(F)cc(F)c1` [Example 231, (βS)-N-[2-(2-{(2S,6S)-1-[(2-chlorophenyl)sulfonyl]-6-methylpiperazin-2-yl}ethyl)-3-fluorophenyl]-β-(3,5-difluorophenyl)-4-fluoro-Nα-(methoxycarbonyl)-L-phenylalaninamide] the figure was 230 nM.
`COC(=O)N[C@H](C(=O)Nc1cccc(F)c1CC[C@H]1CNC[C@@H](C)N1S(=O)(=O)c1ccccc1Cl)[C@@H](c1ccc(F)cc1)c1cc(F)cc(F)c1` [Example 232, (βS)-N-[2-(2-{(2S,6R)-1-[(2-chlorophenyl)sulfonyl]-6-methylpiperazin-2-yl}ethyl)-3-fluorophenyl]-β-(3,5-difluorophenyl)-4-fluoro-Nα-(methoxycarbonyl)-L-phenylalaninamide]: the IC50 under setting [1] is 190 nM.
